Data as given in EP1095663B1, “Potentiated and stabilised disinfectant having bactericidal and virucidal activity” (Sogeval S.A., priority 1999, dated 2001).
Where two headings read alike, the source gives them in different places.

Key:
[1] = system: virus de la maladie de Talfan; experiment: Virucidal activity of mixtures, drop of viral titre, Example 1; assay type: cell-based; details: 30 min, 20°C, eau dure à 30°f + matières organiques
Procedure: Pour déterminer l'activité virucide de l'association susmentionnée, on a préparé différents mélanges monoperoxyphtalate de magnésium/cumène sulfonate de sodium/acide malique et on a analysé l'efficacité de ces différents mélanges sur le virus de la maladie de Talfan, ce en appliquant les conditions expérimentales qui correspondent aux exigences en matière d'homologation d'un désinfectant à usage agricole [temps de contact 30 min. - température 20°C - conditions de saleté : eau dure à 30°f + matières organiques (albumine 1 % + extrait de levure 1 %)].

[2] = system: Pseudomonas aeruginosa, Escherichia coli, Staphylococcus aureus et Enteroccocus hirae; experiment: Bactericidal activity on all four tested strains (summary); assay type: cell-based; details: conditions requises (NF-T 72-301)
Procedure: (§1) Conformément à l'invention, on a vérifié l'activité bactéricide du monoperoxyphtalate de magnésium vis-à-vis de souches bactériennes fréquentes dans les élevages, à savoir les souches suivantes : Pseudomonas aeruginosa, Escherichia coli, Staphylococcus aureus et Enteroccocus hirae, ce en appliquant les conditions expérimentales qui répondent aux exigences d'homologation d'un désinfectant à usage agricole qui sont définies par la norme NF-T 72-301 (temps de contact 5 min. température 20°C, conditions de saleté : eau dure à 30°f, matière organique = albumine 1 % + extraits de levures 1 %).
(§2) Il est à noter que conformément aux exigences en matière d'homologation (norme NF-T 72-171) une substance est considérée comme active à une concentration d'emploi donnée lorsqu'elle permet de réduire le titre bactérien d'au moins 10^5, soit 5 Log.

[3] = 20°C; cited from earlier work
[4] = system: virus de la maladie de Talfan
Description: Selon les normes en vigueur, une substance est considérée comme virucide lorsqu'elle permet de réduire le titre viral d'au moins 10^3, c'est-à-dire de 3 Log.
Ce test a été effectué sur le virus de la maladie de Talfan (enterovirus non enveloppé, à ARN).

truite arc en ciel = details: cited from earlier work
[5] = system: Enteroccocus hirae (CIP 58 55)
Procedure: (§3) On a analysé l'activité bactéricide des produits testés sur les deux souches bactériennes Pseudomonas aeruginosa (CIP A 22) et Enteroccocus hirae (CIP 58 55).
(§4) On a ainsi déterminé les concentrations minimales bactéricides (CMB), d'une part, de monoperoxyphtalate de magnésium (MMPP) et de mélange Ml seul et, d'autre part, de leur association, ce dans des solutions d'eau distillée, d'eau dure à 30°f et dans les conditions de saleté prévues par les normes correspondant aux exigences en matière d'homologation d'un désinfectant à usage agricole (matières organiques : albumine 1 % + extrait de levures 1 %).

[6] = system: Pseudomonas aeruginosa (CIP A 22)
Procedure: as §3, §4

lapin = details: Toxicité aiguë par voie dermique; cited from earlier work
rat [7] = details: Toxicité aiguë par inhalation; cited from earlier work
[8] = system: Escherichia coli (CIP 53 154); details: temps de contact 5 min, 20°C, conditions de saleté
Procedure: as §1, §2

[9] = system: Enterococcus hirae (CIP 58 55); details: temps de contact 5 min, 20°C
Procedure: as §1, §2

[10] = system: Staphylococcus aureus (CIP 53 154); details: temps de contact 5 min, 20°C
Procedure: as §1, §2

[11] = system: Pseudomonas aeruginosa (CIP A22); details: temps de contact 5 min, 20°C, conditions de saleté
Procedure: as §1, §2

rats de laboratoire = details: Toxicité moyenne; cited from earlier work
rat [12] = details: Toxicité aiguë par voie orale; cited from earlier work
[13] = test de AMES; cited from earlier work
[14] = conditions de saleté (eau dure à 30°f, albumine 1 % + extraits de levures 1 %)

O=C(O)CC(O)C(=O)O (stereo not drawn) [Ac. Malique, acide malique]
Chute du titre viral (exprimé en Log) ([1]; Ac. Malique 3000 ppm): 0,33 Log

CC(C)c1ccc(S(=O)(=O)[O-])cc1.[Na+] [Cumène sulfonate de sodium, cumène sulfonate de sodium]
Chute du titre viral (exprimé en Log) ([1]; Cumène sulfonate de sodium 1500 ppm): 0 Log

O=C(O)c1ccccc1C(=O)OO [monoperoxyphtalate de magnésium]
Chute du titre viral (exprimé en Log) ([1]; MMPP 1000 ppm): 2,6 Log
Chute du titre viral (exprimé en Log) ([1]; MMPP 1500 ppm): 3,7 Log
concentration efficace sur les souches testées [2]: 7 500 ppm
concentration efficace sur les souches testées, en oxygène libre ([2]; oxygène libre): 450 ppm
soluble en milieu aqueux [3]: 80 g/L
concentration à partir de laquelle activité virucide [4]: ≥ 1 500 ppm
LC50 (7 jours, truite arc en ciel) (truite arc en ciel): 38,5 mg :l
concentrations minimales bactéricides (CMB) ([5]; Eau distillée): 800 ppm
concentrations minimales bactéricides (CMB) ([5]; Eau dure 30°F): 800 ppm
concentrations minimales bactéricides (CMB) ([6]; Eau distillée): 800 ppm
concentrations minimales bactéricides (CMB) ([6]; Eau dure 30°F): 800 ppm
LD50 (voie dermique, lapin) (lapin): 2000 mg/kg de poids vif
LD50 (voie nasale, rat) (rat [7]): 0,84 mg/l
Equivalence Avox [8]: ≥ 150 ppm
Equivalence Avox ([9]; conditions de saleté): ≥ 300 ppm
Concentration active en monoperoxyphtalate de magnésium (réduction > 10^5 Log) [9, 14]: ≥ 5 000 ppm
Equivalence Avox ([10]; conditions de saleté): ≥ 450 ppm
Concentration active en monoperoxyphtalate de magnésium (réduction > 10^5 Log) [10, 14]: ≥ 7 500 ppm
Equivalence Avox [11]: ≥ 300 ppm
Effets toxiques (alimentation de rats de laboratoire pendant 90 jours) (rats de laboratoire): > 620 mg/kg de poids vif
LD50 (voie orale, rat) (rat [12]): 2300 MG/kg de poids vif
Propriétés Mutagenes [13]: Non mutagène selon le test de AMES (norme n° ...)
